Results: article PMC6345774, “Kinetic and thermodynamic effects of phosphorylation on p53 binding to MDM2” (Scientific Reports, 2019)
Values belong to the molecule of their own block, whether it stands above or below them.

Tests used:
[1] = target: T1, human MDM2 (residues 2–125) (Homo sapiens, UniProt Q00987); experiment: Isothermal titration calorimetry of p53-peptide binding to MDM2; conditions: ITC, 15 °C, 50 mM Tris-HCl pH 8.0, 250 mM NaCl, 0.5 mM TCEP; for ΔH of binding / Kd: peptide titrated into MDM2; for ΔH of binding: repeated twice; for Kd: read-out: Log KA (converted)
T1 construct: human MDM2 (residues 2–125); made in house; host or cells: E. coli BL21 (DE3)
Experimental: Protein concentration was determined from the absorbance of its seven Tyr residues.
Peptide binding to MDM2 was measured by using an Auto-iTC200 (Malvern Instruments, Malvern UK), as described[24],[37]. Data acquisition was carried out with a reference power of 10 µcal/s, initial delay of 60 s, spacing between injections of 150 s. In a typical ITC experiment, the p53 peptide was loaded into a 40 μl syringe and the protein was placed into the sample cell. The sequence of injections consisted of one 0.5 μl injection followed by 19 injections of 2 μl each. Control experiments loading peptide into buffer solution were also carried out for each peptide. Experiments were performed with freshly prepared protein solutions, at 15 °C in the same buffer used in fluorescence experiments. ITC experiments were performed at 15 °C rather than 25 °C to avoid aggregation of MDM2.
Each peak was integrated using NITPIC software. The areas of the peaks are related to the heat exchanged upon binding and/or dilution. This heat was corrected of the heat of dilution (i.e., the average heat of the injections after the equilibrium has reached the saturation). Titration with each peptide was repeated twice.

[2] = Far-UV CD of isolated peptides in aqueous solution (helicity); assay type: physicochemical; conditions: 5 °C, 50 mM phosphate pH 6.8; for molar ellipticity at 222 nm, [Θ]222: far-UV CD; for % Helix in water ([Θ]222): from molar ellipticity at 222 nm assuming 100% helix = −31500 deg cm^2 dmol^−1
Experimental: Spectra were acquired on a Jasco J815 spectropolarimeter (Jasco, Japan) interfaced with a Peltier unit. The instrument was periodically calibrated with (+) 10-camphorsulphonic acid. Far-UV measurements (in aqueous or TFE solutions) were performed in 0.1-cm-pathlength quartz cells (Hellma), with a response time of 2 s, a band width of 1 nm, data were collected every 0.2 nm, and a scan velocity of 50 nm/min (or 20 nm/min). […] In all peptides, two concentrations (10 μM and 70 μM) in aqueous solutions (50 mM sodium phosphate buffer, pH 6.8 […]) were used to determine whether either the shapes or the intensities of the spectra were concentration-dependent. […] In all cases (aqueous solution or TFE titrations), the corresponding blank solutions (containing only buffer, or buffer and the corresponding amount of TFE) were subtracted from the spectra.
(§1) For the TFE titrations, a peptide concentration of 40 μM was used. The samples were prepared the day before and left overnight at 5 °C to reach equilibrium. The experiments in aqueous solution were acquired at 5 °C, in 50 mM sodium phosphate buffer, pH 6.8. Raw ellipticity was converted to molar ellipiticity, [Θ], from which the percentage of helical populations was determined. Co-solvent concentrations were indicated in percentage of volume. […] Fitting of the titration curves, obtained by observation of the molar ellipticity at 222 nm as the TFE concentration was increased, was carried out with Kaleidagraph (Synergy software).

[3] = TFE titrations monitored by CD (helical population); assay type: physicochemical; conditions: 5 °C, 50 mM phosphate pH 6.8, peptide 40 μM; for [TFE]1/2 (midpoint of TFE titration) / m (m-value of TFE titration): CD at 222 nm, two-state fit, ± fitting error; for % Helix in water (from ΔG in TFE titrations): from ΔG = [TFE]1/2 × m, for 1% values the error was 10%
Experimental: Unlike the above programs, which make assumptions about how the ellipticity signal relates to secondary structure content, a TFE titration allows the determination of helical content derived from the free-energy change for the equilibrium between folded (in TFE) and unfolded peptide, without any such assumptions.
as §1

[4] = target: T1, human MDM2 (residues 2–125); experiment: Stopped-flow fluorescence kinetics of p53-peptide binding to MDM2; conditions: 15 °C; for Kd: ratio of kinetic rate constants, assuming two-state binding without intermediates, read-out: Kd (koff/kon); for kon / koff: stopped-flow Trp fluorescence, 50 mM Tris-HCl pH 8.0, 250 mM NaCl, 0.5 mM TCEP, peptide 0.125 μM, ± fitting error; for kon: MDM2 1–3 μM, pseudo-first order, slope, read-out: kon 10^6; for koff: y-axis intercept of pseudo-first-order plot
Experimental: Expression and purification of human MDM2 (residues 2–125) was carried out as described[23] in BL21 (DE3) cells. […] Protein concentration was determined from the absorbance of its seven Tyr residues.
The kinetics of the MDM2/p53-peptide interaction was measured at 15 °C using an Applied Photophysics stopped-flow fluorimeter in the same buffer as that used in the equilibrium fluorescence experiments. The experimental procedure has been described previously. Association kinetics was measured under pseudo-first order conditions, by keeping the MDM2 concentration in excess of that of the peptide. […] Excitation wavelength was 280 nm with a cut-off filter of 315 nm on the emission side. The slit widths were 10 nm for excitation and emission.
At each MDM2 concentration a minimum of six traces were acquired; and the fitting in all cases for all peptides was carried out with the averaging of at least four traces. The averaged trace was always fitted to a single exponential function, which yielded, kobs. Fitting to a single exponential curve was carried out by using Kaleidagraph (Synergy Software); reported errors in kobs are from the exponential fitting. The dissociation (koff) and association (kon) rate constants were obtained from the straight line: kobs=kon×[MDM2]+koff.
Errors in both rates were from the linear fitting; the errors were always larger for koff due to the extrapolation to the y-axis intercept.

[5] = target: T2, human MDM2 (residues 2–125) (human, UniProt Q00987 2-125); experiment: ITC; p53 peptide in the syringe titrated into MDM2 in the cell; Auto-iTC200; 15 °C; 50 mM Tris-HCl pH 8.0, 250 mM NaCl, 0.5 mM TCEP; conditions: both partners purified
T2 construct: MDM2 (murine double minute 2), human, N-terminal domain, residues 2-125; no tag is named; also called N-terminal domain of MDM2
T2 sequence (Q00987 2-125): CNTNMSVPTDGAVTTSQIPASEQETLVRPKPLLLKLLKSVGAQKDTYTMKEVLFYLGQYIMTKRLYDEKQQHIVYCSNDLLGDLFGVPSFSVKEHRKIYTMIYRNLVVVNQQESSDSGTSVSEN

T1 sequence (Q00987 2-125): as above

Molecule: CC(=O)N[C@@H](CCC(=O)O)C(=O)N[C@@H](CC(=O)O)C(=O)N[C@@H](Cc1ccccc1)C(=O)N[C@@H](CCC(=O)O)C(=O)N[C@@H](CC(=O)O)C(=O)N[C@@H](CC(C)C)C(=O)N[C@@H](Cc1c[nH]c2ccccc12)C(=O)N[C@@H](CCCCN)C(=O)N[C@@H](CC(C)C)C(=O)N[C@@H](CC(C)C)C(=O)N1CCC[C@H]1C(=O)N[C@@H](CCC(=O)O)C(=O)N[C@@H](CC(N)=O)C(N)=O [P53-D18-E20]
TΔS of binding [1]: -12.7 kJ/mol
Kd [1]: 5.89 µM
ΔH of binding [1]: -41.4 kJ/mol
molar ellipticity at 222 nm, [Θ]222 [2]: −3597 deg cm^2 dmol^−1
% Helix in water ([Θ]222) [2]: 11.4%
[TFE]1/2 (midpoint of TFE titration) [3]: 33 ± 5 % (vol:vol)
m (m-value of TFE titration) [3]: 112 ± 70 cal mol^−1(%)^−1
% Helix in water (from ΔG in TFE titrations) [3]: 1%

Molecule: CC(=O)N[C@@H](CCC(=O)O)C(=O)N[C@@H](CC(=O)O)C(=O)N[C@@H](Cc1ccccc1)C(=O)N[C@@H](CO)C(=O)N[C@@H](CC(=O)O)C(=O)N[C@@H](CC(C)C)C(=O)N[C@@H](Cc1c[nH]c2ccccc12)C(=O)N[C@@H](CCCCN)C(=O)N[C@@H](CC(C)C)C(=O)N[C@@H](CC(C)C)C(=O)N1CCC[C@H]1C(=O)N[C@@H](CCC(=O)O)C(=O)N[C@@H](CC(N)=O)C(N)=O [P53-D18]
Kd [4]: 5 ± 3 µM
kon [4]: 5e+06 ± 3e+06 M⁻¹ s⁻¹
koff [4]: 23 ± 9 s⁻¹
TΔS of binding [1]: -51 kJ/mol
Kd [1]: 19.1 µM
ΔH of binding [1]: -76.94 kJ/mol
molar ellipticity at 222 nm, [Θ]222 [2]: −3313 deg cm^2 dmol^−1
% Helix in water ([Θ]222) [2]: 10.5%
[TFE]1/2 (midpoint of TFE titration) [3]: 12.0 ± 0.7 % (vol:vol)
m (m-value of TFE titration) [3]: 383 ± 142 cal mol^−1(%)^−1
% Helix in water (from ΔG in TFE titrations) [3]: 1%

Molecule: CC(=O)N[C@@H](CCC(=O)O)C(=O)N[C@H](C(=O)N[C@@H](Cc1ccccc1)C(=O)N[C@@H](CC(=O)O)C(=O)N[C@@H](CC(=O)O)C(=O)N[C@@H](CC(C)C)C(=O)N[C@@H](Cc1c[nH]c2ccccc12)C(=O)N[C@@H](CCCCN)C(=O)N[C@@H](CC(C)C)C(=O)N[C@@H](CC(C)C)C(=O)N1CCC[C@H]1C(=O)N[C@@H](CCC(=O)O)C(=O)N[C@@H](CC(N)=O)C(N)=O)[C@@H](C)O [P53-D20]
Kd [4]: 0.7 ± 0.2 µM
kon [4]: 9.5e+06 ± 900000 M⁻¹ s⁻¹
koff [4]: 7 ± 2 s⁻¹
molar ellipticity at 222 nm, [Θ]222 [2]: −2811 deg cm^2 dmol^−1
% Helix in water ([Θ]222) [2]: 9%

Molecule: CC(=O)N[C@@H](CCC(=O)O)C(=O)N[C@@H](CCC(=O)O)C(=O)N[C@@H](Cc1ccccc1)C(=O)N[C@@H](CO)C(=O)N[C@@H](CC(=O)O)C(=O)N[C@@H](CC(C)C)C(=O)N[C@@H](Cc1c[nH]c2ccccc12)C(=O)N[C@@H](CCCCN)C(=O)N[C@@H](CC(C)C)C(=O)N[C@@H](CC(C)C)C(=O)N1CCC[C@H]1C(=O)N[C@@H](CCC(=O)O)C(=O)N[C@@H](CC(N)=O)C(N)=O [P53-E18]
kon [4]: 3.8e+06 ± 700000 M⁻¹ s⁻¹
koff [4]: 16 ± 2 s⁻¹
TΔS of binding [1]: -1.09 kJ/mol
Kd [1]: 7.08 µM
ΔH of binding [1]: -29.4 kJ/mol
molar ellipticity at 222 nm, [Θ]222 [2]: −2380 deg cm^2 dmol^−1
% Helix in water ([Θ]222) [2]: 7.5%
[TFE]1/2 (midpoint of TFE titration) [3]: 14 ± 5 % (vol:vol)
m (m-value of TFE titration) [3]: 103 ± 42 cal mol^−1(%)^−1
% Helix in water (from ΔG in TFE titrations) [3]: 7 ± 1%

Molecule: CC(=O)N[C@@H](CCC(=O)O)C(=O)N[C@H](C(=O)N[C@@H](Cc1ccccc1)C(=O)N[C@@H](COP(=O)(O)O)C(=O)N[C@@H](CC(=O)O)C(=O)N[C@@H](CC(C)C)C(=O)N[C@@H](Cc1c[nH]c2ccccc12)C(=O)N[C@@H](CCCCN)C(=O)N[C@@H](CC(C)C)C(=O)N[C@@H](CC(C)C)C(=O)N1CCC[C@H]1C(=O)N[C@@H](CCC(=O)O)C(=O)N[C@@H](CC(N)=O)C(N)=O)[C@@H](C)OP(=O)(O)O [P53-pTpS]
molar ellipticity at 222 nm, [Θ]222 [2]: −2547 deg cm^2 dmol^−1
% Helix in water ([Θ]222) [2]: 8.1%

B1: Ac-EdFSDLWKLLPEN-NH2 (P53-D18) (peptide)
peptide: Ac-EDFSDLWKLLPEN-NH2
Kd [5]: 19 µM
Log KA [5]: 4.72
dH [5]: -76.9 kJ/mol

B3: Ac-EdFdDLWKLLPEN-NH2 (P53-D18-D20) (peptide)
peptide: Ac-EDFDDLWKLLPEN-NH2
dH [5]: -41.6 kJ/mol

The remaining lines, values ahead:

TΔS of binding [1]: -16.6 kJ/mol
ΔH of binding [1]: -41.6 kJ/mol
molar ellipticity at 222 nm, [Θ]222 [2]: −2811 deg cm^2 dmol^−1
% Helix in water ([Θ]222) [2]: 9%
[TFE]1/2 (midpoint of TFE titration) [3]: 9.8 ± 0.8 % (vol:vol)
m (m-value of TFE titration) [3]: 263 ± 47 cal mol^−1(%)^−1
% Helix in water (from ΔG in TFE titrations) [3]: 1%
Molecule: CC(=O)N[C@@H](CCC(=O)O)C(=O)N[C@@H](CC(=O)O)C(=O)N[C@@H](Cc1ccccc1)C(=O)N[C@@H](CC(=O)O)C(=O)N[C@@H](CC(=O)O)C(=O)N[C@@H](CC(C)C)C(=O)N[C@@H](Cc1c[nH]c2ccccc12)C(=O)N[C@@H](CCCCN)C(=O)N[C@@H](CC(C)C)C(=O)N[C@@H](CC(C)C)C(=O)N1CCC[C@H]1C(=O)N[C@@H](CCC(=O)O)C(=O)N[C@@H](CC(N)=O)C(N)=O [P53-D18-D20]

molar ellipticity at 222 nm, [Θ]222 [2]: −4614 deg cm^2 dmol^−1
% Helix in water ([Θ]222) [2]: 14.6%
Molecule: CC(=O)N[C@@H](CCC(=O)O)C(=O)N[C@H](C(=O)N[C@@H](Cc1ccccc1)C(=O)N[C@@H](COP(=O)(O)O)C(=O)N[C@@H](CC(=O)O)C(=O)N[C@@H](CC(C)C)C(=O)N[C@@H](Cc1c[nH]c2ccccc12)C(=O)N[C@@H](CCCCN)C(=O)N[C@@H](CC(C)C)C(=O)N[C@@H](CC(C)C)C(=O)N1CCC[C@H]1C(=O)N[C@@H](CCC(=O)O)C(=O)N[C@@H](CC(N)=O)C(N)=O)[C@@H](C)O [P53-pS]

binding to MDM2 in stopped-flow kinetics ([4]; no exponential behaviour in any trace at any MDM2 concentration tested): did not show any evidence of binding
molar ellipticity at 222 nm, [Θ]222 [2]: 142.7 deg cm^2 dmol^−1
% Helix in water ([Θ]222) [2]: 0%
Molecule: Ac-EeFdDLWeeLPEN-NH2 [P53-E18-D20-E24-E25, p53 Glu17-Asn29 peptide with phosphomimetics at Thr18 and Ser20 and Lys24, Leu25 mutated to Glu]

dH [5]: -41.4 kJ/mol
B2: Ac-EdFeDLWKLLPEN-NH2 (P53-D18-E20) (peptide)
peptide: Ac-EDFEDLWKLLPEN-NH2
